# Tested on: skin samples derived from C57BL/6N mouse dorsal body hair skin grafted onto Balb/c nu/nu mice
# Assay: Evaluation of hair growth activity: drug applied on skin samples transplanted in mice
# Type: in vivo
# Procedure: C57BL/6N mice (male) and Balb/c nu/nu mice (female) were purchased from Japan SLC, Inc. (Japan) and bred, and were thereafter made available for the following testing. Note that the testing and breeding of animals complied with pertinent laws, regulations, ordinances, and guidelines, and was performed with the approval of the Experimental Ethics Review Board of the Institute of Physical and Chemical Research. The following reagents were respectively prepared. • Comparative Example 1: 60% aqueous ethanol solution • Comparative Example 2: 5% minoxidil solution • Comparative Example 3: 3% minoxidil solution • Comparative Example 4: 1% minoxidil solution • Working Example 1: 3% phytosphingosine solution • Working Example 2: 1% phytosphingosine solution To collect dorsal body hair skin in the form of anagen stage VI skin 12 to 14 days following depilation, C57BL/6N mice of age 7 to 8 weeks were depilated at locations where dorsal body hair skin was intended to be collected, and were bred for 12 to 14 days. The depilated C57BL/6N mice were thereafter euthanized by cervical dislocation, following which a suitable amount of dorsal body hair skin was collected from the locations at which dorsal body hair skin was intended to be collected. The collected skin was immersed in DMEM culture medium (hereinafter “DMEM 10”) which contained 10 mM HEPES, 10% fetal bovine serum, and 1% penicillin/streptomycin solution. The collected dorsal body hair skin was grasped with bent-nose curved tweezers and was treated by immersion for 10 seconds in a sterilizing solution. Sterilization treatment was performed by carrying out treatment with 7% povidone iodine solution two times, treatment with PBS (−) three times, and treatment with DMEM 10 two times, in this order, with fresh solutions respectively being used each time. Following sterilization treatment, these were immersed in clean DMEM 10. Following sterilization treatment, the dorsal body hair skin was cut into pieces and formed into blocks. The transparent connective tissue which adhered to the cutaneous muscle layer of the skin was excised therefrom using curved scissors, and hair groups were cut into rectangular strips in parallel fashion with respect to the direction of the wave of the hair. At this time, these were cut into blocks such that there were 6 rows of hair follicles along the long axis, adjustment having been carried out so that there were 5 rows of hair follicles along the short axis. The skin samples derived from dorsal body hair skin that were prepared in accordance with the foregoing were grafted onto Balb/c nu/nu mice of age 4 to 6 weeks. More specifically, mice were anesthetized in the usual way using isoflurane gas. The dorsal area of the mice was then disinfected using 7% povidone iodine solution, following which the mice were made to assume a naturally recumbent posture. In addition, a Mani ophthalmic knife (Mani, Inc.; Japan) was used to pierce the skin at the dorsal area of the mice, the grafts which were formed extending from the epidermal layer of the skin to the subdermal layer. The skin samples derived from dorsal body hair skin were inserted into the grafts formed thereat in such fashion as to cause the hair groups to be directed toward the body surface side of the grafts. Skin sample transplanted depth was adjusted so as to cause the top portion of the hair group to be in a state such that it was exposed at the top portion of the graft. To protect the grafts, Nurseban (registered trademark) (Sunplanet Co., Ltd.; Japan) and surgical tape (3M Japan Limited; Japan) were then used as protective tape to cover the grafts at which the skin samples derived from dorsal body hair skin had been transplanted. The protective tape was removed 5 to 7 days following transplantation, and survival of the transplanted skin samples derived from dorsal body hair skin was determined by visual inspection or digital microscopy (Keyence Corporation; Japan), after which follow-up observation was carried out. […]
# [1] = 1% phytosphingosine solution (Working Example 2), second hair cycle
# [2] = 1% phytosphingosine solution (Working Example 2), third hair cycle
# [3] = 1% phytosphingosine solution, second hair cycle vs first hair cycle
# [4] = 1% phytosphingosine solution, third hair cycle vs first hair cycle
# [5] = 3% phytosphingosine solution (Working Example 1), second hair cycle
# [6] = 3% phytosphingosine solution (Working Example 1), third hair cycle
# [7] = 3% phytosphingosine solution, second hair cycle vs first hair cycle
# [8] = 3% phytosphingosine solution, third hair cycle vs first hair cycle
# [9] = solution containing 1% phytosphingosine
# [10] = solution containing 3% phytosphingosine
smiles,measurement,setting,value
CCCCCCCCCCCCCC[C@@H](O)[C@@H](O)[C@@H](N)CO [phytosphingosine],Hair shaft elongation rate,[1],0.48 ± 0.03 mm/day
same,Maximum hair shaft length,[1],5.1 ± 0.2 mm
same,Hair shaft elongation rate,[2],0.45 ± 0.02 mm/day
same,Maximum hair shaft length,[2],4.7 ± 0.1 mm
same,"Hair shaft elongation rate, percent change relative to reference data",[3],129.73%
same,"Maximum hair shaft length, percent change relative to reference data",[3],113.33%
same,"Hair shaft elongation rate, percent change relative to reference data",[4],121.62%
same,"Maximum hair shaft length, percent change relative to reference data",[4],104.44%
same,Hair shaft elongation rate,[5],0.46 ± 0.03 mm/day
same,Maximum hair shaft length,[5],5.4 ± 0.1 mm
same,Hair shaft elongation rate,[6],0.43 ± 0.05 mm/day
same,Maximum hair shaft length,[6],5.1 ± 0.3 mm
same,"Hair shaft elongation rate, percent change relative to reference data",[7],109.52%
same,"Maximum hair shaft length, percent change relative to reference data",[7],122.73%
same,"Hair shaft elongation rate, percent change relative to reference data",[8],102.38%
same,"Maximum hair shaft length, percent change relative to reference data",[8],115.91%
same,hair growth activity,[9],exhibit hair growth activity
same,hair shaft elongation rate as compared with reference data,[9],significant improvement
same,maximum hair shaft length as compared with reference data,"solution containing 1% phytosphingosine, third hair cycle",no significant difference
same,hair growth activity,[10],exhibit hair growth activity
same,hair shaft elongation rate as compared with reference data,[10],no significant difference
same,maximum hair shaft length as compared with reference data,[10],significant improvement
